Laboratory results from ChEMBL document CHEMBL1773053, “Immunosuppressive but non-LasR-inducing analogues of the Pseudomonas aeruginosa quorum-sensing molecule N-(3-oxododecanoyl)-l-homoserine lactone” (J Med Chem, 2011).

Assays:
[1] = target: T1, Transcriptional activator protein LasR (Pseudomonas aeruginosa (strain ATCC 15692 / PAO1 / 1C / PRS 101 / LMG12228)) (UniProt P25084); assay: Induction of lasR-mediated quorum sensing in Pseudomonas aeruginosa PAKR02 harboring lasB::luxCDABE gene assessed as lasR-induction ratio at 10^-4 M after 24 hrs by bioluminescence assay relative to control
T1 sequence (whole entry): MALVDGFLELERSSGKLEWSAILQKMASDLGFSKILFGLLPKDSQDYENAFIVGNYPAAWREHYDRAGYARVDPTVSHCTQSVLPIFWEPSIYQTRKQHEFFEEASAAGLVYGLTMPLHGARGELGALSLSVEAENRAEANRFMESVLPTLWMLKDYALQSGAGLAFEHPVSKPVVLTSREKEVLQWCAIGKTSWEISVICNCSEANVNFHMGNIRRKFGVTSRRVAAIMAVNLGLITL

[2] = target: T1, Transcriptional activator protein LasR (Pseudomonas aeruginosa (strain ATCC 15692 / PAO1 / 1C / PRS 101 / LMG12228)); assay: Inhibition of OdDHL-induced LasR activation in Pseudomonas aeruginosa PAKR02 harboring lasB::luxCDABE gene assessed as remaining Las activity at 10^-4 M after 24 hrs by bioluminescence assay
[3] = test system: Jurkat; assay: Cytotoxicity against human Jurkat E6-1 cells assessed as cell viability after 24 hrs by trypan blue exclusion assay; type: cell-based; conditions: for EC50: Homo sapiens, Jurkat; for Activity: human, jurkat
[4] = Immunosuppressive activity in mouse concanavalin A-stimulated peripheral blood leukocyte assessed as inhibition of leukocyte proliferation by [3H]thymidine incorporation assay; type: functional

Row | Compound | Ratio [1] | Activity [2] [%] | EC50 [3] [µM] | EC50 [4] [µM] | Activity [3]
1 | CCCCCCCCCCCNC(=O)CC(=O)N[C@H]1CCOC1=O | 0.72 | 14 | 140 | 12 | 
2 | CCCCCCCCNC(=O)CC(=O)Nc1ccccc1C(=O)N(C)C | 0.91 | 37 | 160 | 22 | 
3 | CCCCOCCCNC(=O)CC(=O)N[C@H]1CCOC1=O | 0.97 | 108 | > 1000 | 101 | 
4 | CCOCCOCCNC(=O)CC(=O)N[C@@H]1CCC[C@@H]1O | 1.03 | 89 | 700 | 192 | 
5 | CCCCCCCCCC(=O)CC(=O)N[C@H]1CCC(=O)NC1=O | 1.03 | 71 |  | 77 | Non-toxic
6 | CCCCCCCCCC(=O)CC(=O)Nc1nccs1 | 0.87 | 51 | 800 | 25 | 
7 | CCCCCCCCCCC[S+]([O-])CC(=O)N[C@H]1CCOC1=O (some centres undefined) | 0.77 | 63 | 45 | 8.2 | 
8 | CCCCCCCCNC(=O)CC(=O)Nc1ccc2[nH]ncc2c1 | 1.1 | 62 | > 1000 | 55 | 
9 | CCCCCCCCNC(=O)CC(=O)NC1CCCCCC1 | 0.9 | 19 | 78 | 14 | 
10 | CCCCCCCCCC(=O)CC(=O)N[C@H]1CC(=O)NC1=O | 1.04 | 82 |  | > 1000 | Non-toxic
11 | CCCCCCCCCS(=O)(=O)CC(=O)N[C@H]1CCOC1=O | 0.92 | 72 | 200 | 31 | 
12 | CCOCCOCCNC(=O)CC(=O)N[C@H]1CCOC1=O | 1.02 | 61 | > 1000 | > 1000 | 
13 | CCCCCCCCC[S+]([O-])CC(=O)N[C@H]1CCOC1=O (some centres undefined) |  |  | 720 | 27 | 
14 | CCCCCCCCNC(=O)CC(=O)Nc1cccc(C(N)=O)c1 | 0.81 | 59 | 700 | 15 | 
15 | CCCCCCCCNC(=O)CC(=O)N[C@@H]1CCC[C@@H]1O | 0.96 | 55 | 400 | 43 | 
16 | CCCCCCCCNC(=O)CC(=O)N[C@H]1CCOC1=O | 1.06 | 20 | 200 | 35 | 
17 | CCCCCCCCCNC(=O)CC(=O)N[C@H]1CCOC1=O | 1.01 | 3.4 | 530 | 23 | 
18 | CCCCCCCCNC(=O)CC(=O)Nc1cc(Cl)ccc1O | 0.62 | 66 | > 1000 | 9.3 | 
19 | CCCCCCCCCC(=O)CC(=O)N[C@H]1CCOC1=O | 12.3 |  | 250 | 21 | 
20 | CCCCCCCCNC(=O)CC(=O)Nc1ccccc1O | 0.79 | 29 | > 1000 | 22 | 

Row | Compound | Ratio [1] | Activity [2] [%] | EC50 [3] [µM] | EC50 [4] [µM] | Activity [3]
21 | CCCCCCCCNC(=O)CC(=O)N[C@@H]1CCCC[C@@H]1O | 0.92 | 45 | 400 | 32 | 
22 | CCCCCCCCNS(=O)(=O)CC(=O)N[C@H]1CCOC1=O | 1.02 | 101 | 900 | 13 | 
23 | CCCCCCCCN(CCC)C(=O)CC(=O)N[C@H]1CCOC1=O | 0.99 | 101 | 200 | 28 | 
24 | CCCCOCCCNC(=O)CC(=O)N[C@@H]1CCC[C@@H]1O | 0.94 | 111 | > 1000 | 160 | 
25 | CCCCCCCCCCCS(=O)(=O)CC(=O)N[C@H]1CCOC1=O | 0.75 | 76 | 170 | 8.3 | 
26 | CCCCCCCCNC(=O)CS(=O)(=O)N[C@H]1CCOC1=O | 1.04 | 86 | 220 | 9.1 | 
27 | CCCCCCCCNC(=O)CC(=O)Nc1ccccc1C(N)=O | 0.8 | 23 | 120 | 25 | 
28 | CCCCCCCCC/C(O)=C1/C(=O)N[C@@H](CCO)C1=O | 0.96 | 21 | 52 | 29 | 
29 | CCCCCCCCN(CCO)C(=O)CC(=O)N[C@H]1CCOC1=O | 1.01 | 16 | 300 | 41 | 
30 | CCCCCCCCNC(=O)C(F)(F)C(=O)N[C@H]1CCOC1=O |  | 6 | > 1000 | 97 | 
31 | CCCCCCCCNC(=O)CC(=O)Nc1ccccn1 | 0.91 | 41 | > 1000 | 18 | 
32 | CCCCCCCCCN(N)CC(=O)N[C@H]1CCOC1=O | 1.03 | 55 | 410 | 8.9 | 
33 | CCCCCCCCNC(=O)C(F)C(=O)N[C@H]1CCOC1=O (some centres undefined) | 0.91 | 57 | 800 | 26 | 
34 | CCCCCCCCCN(O)CC(=O)N[C@H]1CCOC1=O | 0.99 | 69 | 400 | 13 | 
35 | CCCCCCCCOC(=O)CC(=O)N[C@H]1CCOC1=O | 1.18 | 46 | 500 | 37 | 
36 | CCCCCCCCCC(CC(=O)N[C@H]1CCOC1=O)OC(C)=O (mixture of isomers) | 1.13 | 70 | 120 | 5.2 | 
37 | CCCCCCCCN(C)C(=O)CC(=O)N[C@H]1CCOC1=O | 0.91 | 60 | > 1000 | 22 | 
38 | CCCCCCCCCSCC(=O)N[C@H]1CCOC1=O | 0.9 | 51 | > 1000 | > 1000 | 
39 | CCCCCCCCCN(CC(=O)N[C@H]1CCOC1=O)OCc1ccccc1 |  |  | 63 | 17 | 
40 | CCCCCCCCNC(=O)CC(=O)Nc1nccs1 | 0.9 | 64 | 600 | 27 | 
